Test results as given in EP4356929A1, “ANTIFIBROTIC FORMULATION FOR OPHTHALMIC TREATMENT” (Universität Rostock, priority 2022, dated 2024).

Assay: physchem
Format: physicochemical
Conditions: aqueous gamma-cyclodextrin 200 mg/ml
Experimental: This hydrogel can then be loaded with JM, which forms a host-guest complex with the yCD molecules Fig. 2 the amount of chlorine in various EPI crosslinked hydrogel samples was quantified. The EPI contains chlorine, but the final crosslinked hydrogel should not. Gels washed at 37°C in DI water were given either three 1-hour washes (short wash) or two 1-hour washes followed by an overnight wash with water or Ethanol. […] Fig. 3 the maximum solubility of Josamycin in aqueous solutions of various yCD concentrations was measured. Soluble JM was measured by HPLC. […] The amount of JM released was measured over time and expressed as a percent of the total JM initially loaded into the gel. Most of the JM was released within the first 96 hrs. […] On the left are molded and washed gels, which have been completely dried. On the right is a fully rehydrated gel which is almost completely transparent. […] The total drug loading was linearly related to the amount of josamycin in the loading solution.
The first formulation developed is a solution of yCD and JM. Solutions of JM and yCD can be made up to 18.9 mg/ml JM with 200 mg/ml yCD. These solutions are formed by simply mixing the JM and yCD in water or PBS until dissolved. This liquid formulation can then be sterilized via syringe filter before use. The solution is suitable for application to the eye as an eye drop or injection during or after surgery. […]

- solubility: ≤ 18.9 mg/mL
SMILES: CO[C@@H]1[C@@H](O[C@@H]2O[C@H](C)[C@@H](O[C@H]3C[C@@](C)(O)[C@@H](OC(=O)CC(C)C)[C@H](C)O3)[C@H](N(C)C)[C@H]2O)[C@@H](CC=O)C[C@@H](C)[C@@H](O)/C=C/C=C/C[C@@H](C)OC(=O)C[C@H]1OC(C)=O [JM, josamycin]
